Reference: the NIST ThermoML archive (doi:10.1016/j.jct.2016.03.021)

Assay: wn = mass fraction of the nth substance listed
Conditions: Liquid; for mass density: Vibrating tube method

CN(CCO)CCO [N-methyldiethanolamine] + O
viscosity [mPa·s]
Conditions | w1 = 0.1 | w1 = 0.2 | w1 = 0.2002 | w1 = 0.3 | w1 = 0.4
293.15 K, 93 kPa, Concentric cylinders viscometry | 1.463 | 2.293 | – | 3.942 | –
293.15 K, 100 kPa, Falling or rolling sphere viscometry | 1.476 | 2.35 | 2.35 | 3.999 | –
293.15 K, 5000 kPa, Falling or rolling sphere viscometry | 1.475 | – | 2.353 | 4.018 | –
293.15 K, 10000 kPa, Falling or rolling sphere viscometry | 1.475 | – | 2.357 | 4.038 | –
293.15 K, 20000 kPa, Falling or rolling sphere viscometry | 1.471 | – | 2.364 | 4.077 | –
293.15 K, 30000 kPa, Falling or rolling sphere viscometry | 1.472 | – | 2.372 | 4.114 | –
293.15 K, 40000 kPa, Falling or rolling sphere viscometry | 1.47 | – | 2.38 | 4.153 | –
293.15 K, 60000 kPa, Falling or rolling sphere viscometry | 1.474 | – | 2.399 | 4.231 | –
293.15 K, 80000 kPa, Falling or rolling sphere viscometry | 1.477 | – | 2.419 | 4.311 | –
293.15 K, 100000 kPa, Falling or rolling sphere viscometry | 1.485 | – | 2.437 | 4.39 | –
293.15 K, 120000 kPa, Falling or rolling sphere viscometry | 1.492 | – | 2.464 | 4.478 | –
313.15 K, 93 kPa, Concentric cylinders viscometry | 0.9079 | 1.342 | – | 2.094 | 3.145
313.15 K, 100 kPa, Falling or rolling sphere viscometry | 0.912 | 1.345 | 1.345 | 2.095 | 3.238
313.15 K, 5000 kPa, Falling or rolling sphere viscometry | 0.914 | – | 1.347 | 2.106 | 3.27
313.15 K, 10000 kPa, Falling or rolling sphere viscometry | 0.915 | – | 1.349 | 2.118 | 3.302
313.15 K, 20000 kPa, Falling or rolling sphere viscometry | 0.92 | – | 1.358 | 2.144 | 3.365
313.15 K, 30000 kPa, Falling or rolling sphere viscometry | 0.923 | – | 1.367 | 2.168 | 3.428
313.15 K, 40000 kPa, Falling or rolling sphere viscometry | 0.927 | – | 1.377 | 2.192 | 3.491
313.15 K, 60000 kPa, Falling or rolling sphere viscometry | 0.936 | – | 1.398 | 2.244 | 3.618
313.15 K, 80000 kPa, Falling or rolling sphere viscometry | 0.945 | – | 1.418 | 2.296 | 3.74
313.15 K, 100000 kPa, Falling or rolling sphere viscometry | 0.955 | – | 1.445 | 2.356 | 3.866
313.15 K, 120000 kPa, Falling or rolling sphere viscometry | 0.964 | – | 1.466 | 2.412 | 3.996
333.15 K, 93 kPa, Concentric cylinders viscometry | 0.6344 | 0.8719 | – | 1.276 | 1.82
333.15 K, 100 kPa, Falling or rolling sphere viscometry | 0.624 | 0.872 | 0.872 | 1.271 | 1.843
333.15 K, 5000 kPa, Falling or rolling sphere viscometry | 0.627 | – | 0.876 | 1.278 | 1.861
333.15 K, 10000 kPa, Falling or rolling sphere viscometry | 0.63 | – | 0.881 | 1.286 | 1.88
333.15 K, 20000 kPa, Falling or rolling sphere viscometry | 0.634 | – | 0.89 | 1.302 | 1.921
333.15 K, 30000 kPa, Falling or rolling sphere viscometry | 0.638 | – | 0.898 | 1.316 | 1.956
333.15 K, 40000 kPa, Falling or rolling sphere viscometry | 0.643 | – | 0.907 | 1.332 | 1.992
333.15 K, 60000 kPa, Falling or rolling sphere viscometry | 0.652 | – | 0.924 | 1.367 | 2.063

mass density [kg/m3]
Conditions | w1 = 0.1 | w1 = 0.2002 | w1 = 0.3 | w1 = 0.4
293.15 K, 100 kPa | 1007 | 1016.5 | 1026.7 | 1036.6
293.15 K, 500 kPa | 1007.2 | 1016.6 | 1026.9 | 1036.8
293.15 K, 1000 kPa | 1007.4 | 1016.8 | 1027.1 | 1036.9
293.15 K, 2000 kPa | 1007.8 | 1017.2 | 1027.4 | 1037.3
293.15 K, 5000 kPa | 1009 | 1018.4 | 1028.6 | 1038.3
293.15 K, 10000 kPa | 1011.1 | 1020.3 | 1030.4 | 1040.1
293.15 K, 15000 kPa | 1013.2 | 1022.2 | 1032.2 | 1041.9
293.15 K, 20000 kPa | 1015.3 | 1024.2 | 1034.1 | 1043.6
293.15 K, 30000 kPa | 1019.4 | 1028 | 1037.7 | 1047.1
293.15 K, 40000 kPa | 1023.4 | 1031.8 | 1041.2 | 1050.4
293.15 K, 50000 kPa | 1027.3 | 1035.4 | 1044.6 | 1053.8
293.15 K, 60000 kPa | 1031.1 | 1039 | 1048 | 1057.1
293.15 K, 70000 kPa | 1035 | 1042.6 | 1051.4 | 1060.3
293.15 K, 80000 kPa | 1038.5 | 1045.9 | 1054.6 | 1063.3
293.15 K, 90000 kPa | 1042.2 | 1049.4 | 1057.9 | 1066.4
293.15 K, 100000 kPa | 1045.7 | 1052.8 | 1061.1 | 1069.5
293.15 K, 110000 kPa | 1049.2 | 1056 | 1064.1 | 1072.4
293.15 K, 120000 kPa | 1052.7 | 1059.3 | 1067.2 | 1075.4
293.15 K, 130000 kPa | 1056.1 | 1062.6 | 1070.3 | 1078.4
293.15 K, 140000 kPa | 1059.5 | 1065.6 | 1073.2 | 1081.1
313.15 K, 100 kPa | 1000.2 | 1008.5 | 1017.2 | 1025.5
313.15 K, 500 kPa | 1000.4 | 1008.6 | 1017.4 | 1025.6
313.15 K, 1000 kPa | 1000.6 | 1008.8 | 1017.5 | 1025.8
313.15 K, 2000 kPa | 1001 | 1009.2 | 1017.9 | 1026.2
313.15 K, 5000 kPa | 1002.2 | 1010.4 | 1019.1 | 1027.3
313.15 K, 10000 kPa | 1004.3 | 1012.3 | 1020.9 | 1029.2
313.15 K, 15000 kPa | 1006.3 | 1014.2 | 1022.8 | 1031
313.15 K, 20000 kPa | 1008.2 | 1016.1 | 1024.6 | 1032.8
313.15 K, 30000 kPa | 1012.3 | 1019.9 | 1028.4 | 1036.3
313.15 K, 40000 kPa | 1016.2 | 1023.7 | 1032 | 1040
313.15 K, 50000 kPa | 1019.9 | 1027.3 | 1035.5 | 1043.2
313.15 K, 60000 kPa | 1023.8 | 1031 | 1039 | 1046.6
313.15 K, 70000 kPa | 1027.4 | 1034.4 | 1042.3 | 1050
313.15 K, 80000 kPa | 1031 | 1037.9 | 1045.5 | 1053.1
313.15 K, 90000 kPa | 1034.5 | 1041.2 | 1048.7 | 1056.2
313.15 K, 100000 kPa | 1038.2 | 1044.7 | 1052 | 1059.5
313.15 K, 110000 kPa | 1041.5 | 1047.9 | 1055.2 | 1062.5
313.15 K, 120000 kPa | 1044.9 | 1051.1 | 1058.3 | 1065.5
313.15 K, 130000 kPa | 1048.1 | 1054.3 | 1061.3 | 1068.4
313.15 K, 140000 kPa | 1051.4 | 1057.4 | 1064.5 | 1071.4
333.15 K, 100 kPa | 990.5 | 997.8 | 1005.4 | 1012.4
333.15 K, 500 kPa | 990.6 | 998 | 1005.6 | 1012.7
333.15 K, 1000 kPa | 990.8 | 998.2 | 1005.7 | 1012.8
333.15 K, 2000 kPa | 991.3 | 998.6 | 1006.2 | 1013.2
333.15 K, 5000 kPa | 992.5 | 999.8 | 1007.3 | 1014.4
333.15 K, 10000 kPa | 994.6 | 1001.8 | 1009.3 | 1016.4
333.15 K, 15000 kPa | 996.6 | 1003.8 | 1011.3 | 1018.4
333.15 K, 20000 kPa | 998.6 | 1005.7 | 1013.2 | 1020.3
333.15 K, 30000 kPa | 1002.6 | 1009.7 | 1017 | 1024.1
333.15 K, 40000 kPa | 1006.7 | 1013.6 | 1020.9 | 1027.9
333.15 K, 50000 kPa | 1010.4 | 1017.2 | 1024.3 | 1031.4
333.15 K, 60000 kPa | 1014.2 | 1020.9 | 1027.9 | –
